Values of other authors, collected in publication PMC12308805, “Ultrahigh-Throughput Virtual Screening Strategies against PPI Targets: A Case Study of STAT Inhibitors” (Journal of Chemical Information and Modeling, 2025).

system: STAT5b; parameters: method as in literature; details: training set for retrospective virtual screening with 6MBW; known actives for STAT5b found in the literature; ref literature; cited from earlier work

SMILES | Type (Active / decoy)
CC(C)(C)c1cc(CN(C(=O)CN(Cc2ccc(Cl)cc2)S(=O)(=O)c2c(F)c(F)c(F)c(F)c2F)c2ccc(C(=O)O)cc2)cc(C(C)(C)C)c1 [AC-4-130, CC(C)(C)c1cc(CN(C(=O)CN(Cc2ccc(Cl)cc2)S(=O)(=O)c2c(F)c(F)c(F)c(F)c2F)c2ccc(C(=O)O)cc2)cc(C(C)(C)C)c1] | Active
COC(=O)c1cccc(-c2ccc(-c3ccc(CN(C(=O)CN(C)S(=O)(=O)c4ccc(C)cc4)c4ccc(C(=O)O)c(O)c4)cc3)cc2)c1 [BP-1-075, COC(=O)c1cccc(-c2ccc(-c3ccc(CN(C(=O)CN(C)S(=O)(=O)c4ccc(C)cc4)c4ccc(C(=O)O)c(O)c4)cc3)cc2)c1] | Active
CC(C)(C)c1cc(CN(C(=O)CN(Cc2ccc(Cl)cc2)S(=O)(=O)c2c(F)c(F)c(F)c(F)c2F)c2ccc(C(=O)O)c(O)c2)cc(C(C)(C)C)c1 [13a, CC(C)(C)c1cc(CN(C(=O)CN(Cc2ccc(Cl)cc2)S(=O)(=O)c2c(F)c(F)c(F)c(F)c2F)c2ccc(C(=O)O)c(O)c2)cc(C(C)(C)C)c1] | Active
CN(CC(=O)N(Cc1ccc(C2CCCCC2)cc1)c1ccc(C(=O)O)c(O)c1)S(=O)(=O)c1ccc(-c2ccccc2)cc1 [BP-1-107, CN(CC(=O)N(Cc1ccc(C2CCCCC2)cc1)c1ccc(C(=O)O)c(O)c1)S(=O)(=O)c1ccc(-c2ccccc2)cc1] | Active
Cc1cc(C)c(S(=O)(=O)N(C)CC(=O)N(Cc2ccc(C3CCCCC3)cc2)c2ccc(C(=O)O)c(O)c2)c(C)c1 [BP-1-108, Cc1cc(C)c(S(=O)(=O)N(C)CC(=O)N(Cc2ccc(C3CCCCC3)cc2)c2ccc(C(=O)O)c(O)c2)c(C)c1] | Active
